According to patent publication US10517849B2, “LSD1 inhibitors and medical uses thereof” (Constellation Pharmaceuticals, Inc., priority 2016, dated 2019):
Structures can show the parent of a compound that is named as a salt.

How the values were obtained:
[1] = system: LY-96 mRNA induction in MV4-11 cells; test: LSD1 LY96 Quantigene Assay; format: cell-based; details: Homo sapiens, 16 h, Quantigene 2.0
Method: MV4-11 cells were cultured at a density of 4×10^4 cells per well in a 96-well plates and treated with various doses inhibitor starting from 10 μM up to 0.0005 μM for 16 h. The LY-96 mRNA induction was quantified using the Quantigene 2.0 system (Affymetrix). The cells were lysed with Lysis Mixture containing Proteinase K. The working reagent for capturing the RNA was prepared according to the steps detailed in “Capturing Target RNA from Cultured Cell or Blood Lysates” in the Quantigene handbook. The subsequent hybridization with LY-96 probe, signal amplification and detection steps were performed as described in the manual. The chemiluminescence was read using Envision (PerkinElmer) and Abase (IDBS software) was used to plot the dose response curves and calculate IC50.

Kasumi-1 = Kasumi-1 GI50 Assay; format: cell-based; details: Homo sapiens, 288 h; Kasumi-1 cells, 12 days, Cell Titer-Glo viability
Method: Cells were plated at 5,000 cells per well in 96 well tissue culture dishes containing tool compounds arrayed in a 10-point dose curve, ranging from […] with 4-fold dilutions, and split every fourth day at a fixed ratio to re-establish 5,000 cells/well density for DMSO-treated controls. Cell treatments were carried out for a total of 12 days. At each 4-day split, the viable cell numbers were determined using the Cell Titer-Glo luminescent cell viability assay (Promega, Madison, Wis. USA) using an EnVision® Multilabel Plate Reader (Perkin Elmer, Waltham, Mass. USA). GraphPad Prism 6 (GraphPad Software, Inc., La Jolla, Calif. USA) was used for curve fitting and determination of GI50 values.

Row | SMILES | EC50 [1] [nM] | GI50 (Kasumi-1) [nM]
1 | CC/C(=C\c1ccccc1)[C@@H]1C[C@H]1NC1CC2(C1)CN(CCNC(C)=O)C2 [Compound 5, N-(2-(6-(((1R,2S)-2-((E)-1-phenylbut-1-en-2-yl)cyclopropyl)amino)-2-azaspiro[3.3]heptan-2-yl)ethyl)acetamide bis(2,2,2-trifluoroacetate)] | < 100 | < 100
2 | CC/C(=C\c1ccccc1)[C@@H]1C[C@H]1NC1CC2(C1)CN(CC(=O)NCCS(C)(=O)=O)C2 [Compound 26, N-(2-(methylsulfonyl)ethyl)-2-(6-(((1R,2S)-2-((E)-1-phenylbut-1-en-2-yl)cyclopropyl)amino)-2-azaspiro[3.3]heptan-2-yl)acetamide bis(2,2,2-trifluoroacetate)] | < 100 | < 100
3 | CC/C(=C\c1ccccc1)[C@@H]1C[C@H]1NC1CC2(C1)CN(C(C)C(N)=O)C2 (stereo partly drawn) [Compound 30, 2-(6-(((1R,2S)-2-((E)-1-phenylbut-1-en-2-yl)cyclopropyl)amino)-2-azaspiro[3.3]heptan-2-yl)propanamide bis(2,2,2-trifluoroacetate)] | < 100 | < 100
4 | CC/C(=C\c1ccccc1)[C@@H]1C[C@H]1NC1CC2(CCN(C(CO)CO)CC2)C1 [Compound 10, 2-(2-(((1R,2S)-2-((E)-1-phenylbut-1-en-2-yl)cyclopropyl)amino)-7-azaspiro[3.5]nonan-7-yl)propane-1,3-diol bis(2,2,2-trifluoroacetate)] | < 100 | < 100
5 | CC/C(=C\c1ccccc1)[C@@H]1C[C@H]1NC1CC2(CCN(CC(C)(C)O)CC2)C1 [Compound 18, 2-methyl-1-(2-(((1R,2S)-2-((E)-1-phenylbut-1-en-2-yl)cyclopropyl)amino)-7-azaspiro[3.5]nonan-7-yl)propan-2-ol dihydrochloride] | < 100 | < 100
6 | CC/C(=C\c1ccccc1)[C@@H]1C[C@H]1NC1CC2(C1)CN(CCNS(=O)(=O)CCOC)C2 [Compound 9, 2-methoxy-N-(2-(6-(((1R,2S)-2-((E)-1-phenylbut-1-en-2-yl)cyclopropyl)amino)-2-azaspiro[3.3]heptan-2-yl)ethyl)ethanesulfonamide bis(2,2,2-trifluoroacetate)] | < 100 | < 100
7 | CC/C(=C\c1ccccc1)[C@@H]1C[C@H]1NC1CC2(C1)CN(CC(=O)N(C)C)C2 [Compound 28, N,N-dimethyl-2-(6-(((1R,2S )-2-((E)-1-phenylbut-1-en-2-yl)cyclopropyl)amino)-2-azaspiro[3.3]heptan-2-yl)acetamide bis(2,2,2-trifluoroacetate)] | < 100 | < 100
8 | CC/C(=C\c1ccccc1)[C@@H]1C[C@H]1NC1CC2(C1)CN(CCNS(=O)(=O)CC)C2 [Compound 7, N-(2-(6-(((1R,2S)-2-((E)-1-phenylbut-1-en-2-yl)cyclopropyl)amino)-2-azaspiro[3.3]heptan-2-yl)ethyl)ethanesulfonamide bis(2,2,2-trifluoroacetate)] | < 100 | < 100
9 | CC/C(=C\c1ccccc1)[C@@H]1C[C@H]1NC1CC2(C1)CN(CCNS(=O)(=O)C1CC1)C2 [Compound 6, N-(2-(6-(((1R,2S)-2-((E)-1-phenylbut-1-en-2-yl)cyclopropyl)amino)-2-azaspiro[3.3]heptan-2-yl)ethyl)cyclopropanesulfonamide bis(2,2,2-trifluoroacetate)] | < 100 | < 100
10 | CC/C(=C\c1ccccc1)[C@@H]1C[C@H]1NC1CC2(CCN(C[C@@H](C)O)CC2)C1 [Compound 16, (R)-1-(2-(((1R,2S)-2-((E)-1-phenylbut-1-en-2-yl)cyclopropyl)amino)-7-azaspiro[3.5]nonan-7-yl)propan-2-ol dihydrochloride] | < 100 | < 100
11 | CC/C(=C\c1ccccc1)[C@@H]1C[C@H]1NC1CC2(C1)CN(CC(C)(C)NS(C)(=O)=O)C2 [Compound 15, N-(2-methyl-1-(6-(((1R,2S)-2-((E)-1-phenylbut-1-en-2-yl)cyclopropyl)amino)-2-azaspiro[3.3]heptan-2-yl)propan-2-yl)methanesulfonamide bis(2,2,2-trifluoroacetate)] | < 100 | < 100
12 | CC/C(=C\c1ccccc1)[C@@H]1C[C@H]1NC1CC2(C1)CN(CC(=O)NS(C)(=O)=O)C2 [Compound 29, N-(methylsulfonyl)-2-(6-(((1R,2S)-2-((E)-1-phenylbut-1-en-2-yl)cyclopropyl)amino)-2-azaspiro[3.3]heptan-2-yl)acetamide bis(2,2,2-trifluoroacetate)] | < 100 | < 100
13 | CC/C(=C\c1ccccc1)[C@@H]1C[C@H]1NC1CC2(CCN(C[C@H](O)CO)CC2)C1 [Compound 20, (S)-3-(2-(((1R,2S)-2-((E)-1-phenylbut-1-en-2-yl)cyclopropyl)amino)-7-azaspiro[3.5]nonan-7-yl)propane-1,2-diol dihydrochloride] | < 100 | < 100
14 | CC/C(=C\c1ccccc1)[C@@H]1C[C@H]1NC1CC2(C1)CN(C(C)(C)C(N)=O)C2 [Compound 14, 2-methyl-2-(6-(((1R,2S)-2-((E)-1-phenylbut-1-en-2-yl)cyclopropyl)amino)-2-azaspiro[3.3]heptan-2-yl)propanamide bis(2,2,2-trifluoroacetate)] | < 100 | < 100
15 | CC/C(=C\c1ccccc1)[C@@H]1C[C@H]1NC1CC2(CCN(CCC(N)=O)CC2)C1 [Compound 24, 3-(2-(((1R,2S)-2-((E)-1-phenylbut-1-en-2-yl)cyclopropyl)amino)-7-azaspiro[3.5]nonan-7-yl)propanamide dihydrochloride] | < 100 | < 100
16 | CC/C(=C\c1ccccc1)[C@@H]1C[C@H]1NC1CC2(C1)CN(CC(=O)NC(C)C)C2 [Compound 27, N-isopropyl-2-(6-(((1R,2S)-2-((E)-1-phenylbut-1-en-2-yl)cyclopropyl)amino)-2-azaspiro[3.3]heptan-2-yl)acetamide bis(2,2,2-trifluoroacetate)] | < 100 | < 100
17 | CC/C(=C\c1ccccc1)[C@@H]1C[C@H]1NC1CC2(CCN(C[C@@H](O)CO)CC2)C1 [Compound 19, (R)-3-(2-(((1R,2S)-2-((E)-1-phenylbut-1-en-2-yl)cyclopropyl)amino)-7-azaspiro[3.5]nonan-7-yl)propane-1,2-diol dihydrochloride] | < 100 | < 100
18 | CC/C(=C\c1ccccc1)[C@@H]1C[C@H]1NC1CC2(C1)CN(CCNS(=O)(=O)C(C)C)C2 [Compound 8, N-(2-(6-(((1R,2S)-2-((E)-1-phenylbut-1-en-2-yl)cyclopropyl)amino)-2-azaspiro[3.3]heptan-2-yl)ethyl)propane-2-sulfonamide bis(2,2,2-trifluoroacetate)] | < 100 | < 100
